Data taken from US9018187B2, “Cationic lipids and methods for the delivery of therapeutic agents” (Protiva Biotherapeutics, Inc., priority 2009, dated 2015).
Entries after “also recorded” stand apart in the source; their conditions may differ.

Experiments:
tumor PLK-1 mRNA = assay: Tumor PLK-1 mRNA knockdown by 7:54 SNALP in Scid mice containing Hep3B tumors; assay type: in vivo, mouse; details: FIG. 11, 7:54 SNALP with PLK-1 siRNA, IV 3 mg/kg, 24 hours, PLK-1/GAPDH QG assay
Procedure: 7:54 SNALP formulations containing encapsulated PLK-1 siRNA were prepared with the following cationic lipids: (1) DLinDMA; (2) TLinDMA; (3) DLin-C1K-DMA (“DLin-K-DMA”); (4) DPanDMA; (5) DPan-C2-DMA (“C2-DPanDMA”); (6) DPan-C2K-DMA; (7) DPan-C3K-DMA; and (8) DPan-C1K6-DMA.
(§1) Each SNALP formulation was administered by intravenous (IV) injection at 3 mg/kg into Scid mice containing Hep3B tumors (n=4 per group). Tumor tissue was colleted at 24 hours after SNALP administration and tumor PLK-1 mRNA levels were evaluated by performing a PLK-1/GAPDH QG assay. Table 5 provides a characterization of the SNALP formulations used in this in vivo study.

[1] = TNS assay, apparent pKa of cationic lipid in 1:57 SNALP; details: 1:57 SNALP formulation containing encapsulated APOB siRNA
Procedure: 1:57 SNALP formulations containing encapsulated APOB siRNA were prepared as described in Section VI above with the following cationic lipids: (1) DLinDMA; (2) DLenDMA; (3) γ-DLenDMA (“g-DLenDMA”); (4) C2-DLinDAP; (5) DLinPip (4-OH); (6) DLinPip; (7) DLinPip (3-OH); (8) DLinDEA; (9) DDocDMA; (10) DAraDMA; (11) TLinDMA; (12) DLin-C2K Pip (30H); (13) DHep-C2K-DMA; (14) DPanDMA; (15) C2-DPanDMA (“DPan-C2-DMA”); (16) DPan-C2K-DMA; (17) DPan-C3K-DMA; (18) DPan-K6-DMA (“DPan-C1K6-DMA”); and (19) C2-TLinDMA.
The apparent pKa of the cationic lipids present in these SNALP formulations was determined using a 2-(p-toluidinyl)-naphthalene-6-sodium sulfonate (TNS) assay. TNS is a negatively-charged indicator of membrane potential that is electrostatically attracted to positively charged membranes (see, Bailey and Cullis, Biochemistry, 33 12573-80 (1994)). Subsequent adsorption to the lipid membrane results in the immediate environment of the TNS becoming more lipophilic, removing the water molecules that otherwise quench TNS fluorescence. As a result, TNS measures the surface potential of the particle, wherein the more positive the surface potential, the greater the level of fluorescence. The surface pKa values of each SNALP formulation were determined by varying the local pH in the presence of TNS. By plotting fluorescence versus pH, the pKa of the cationic lipid can be estimated in the particle as the pH where fluorescence equals 50% of total fluorescence.

liver ApoB mRNA = assay: Liver ApoB mRNA knockdown by 1:57 SNALP with APOB siRNA in mice; assay type: in vivo, mouse; details: 1:57 SNALP, 6:1 L:D, IV 0.1 mg/kg, female Balb/c mice, 48 hours
Procedure: Each SNALP formulation was administered by intravenous (IV) injection at 0.1 mg/kg into female Balb/c mice (n=3 per group). Plasma total cholesterol and/or liver ApoB mRNA levels were evaluated at 48 hours after SNALP administration. For dose response studies, SNALP formulations were administered by IV injection at 0.01 mg/kg, 0.03 mg/kg, or 0.1 mg/kg into female Balb/c mice (n=3 per group). Liver ApoB mRNA levels were evaluated at 48 hours after SNALP administration.
1:57 SNALP formulations containing encapsulated APOB siRNA at a 6:1 lipid:drug (L:D) ratio were prepared with the following cationic lipids: (1) DLinDMA; (2) Linoleyl/Linolenyl DMA (“Lin/LenDMA”); (3) DPanDMA; (4) TLinDMA; (5) Linoleyl/C6:0 DMA (“Lin/6:0”); (6) C2-DPanDMA; (7) DLin-C2K-Pip (30H); and (8) DHep-C2K-DMA.
(§2) Each SNALP formulation was administered by intravenous (IV) injection at 0.1 mg/kg into female Balb/c mice (n=3 per group). Livers were colleted at 48 hours after SNALP administration and liver ApoB mRNA levels were evaluated by performing an ApoB/GAPDH QG assay. Table 2 provides a characterization of the SNALP formulations used in this in vivo study.
In another study, 1:57 SNALP formulations containing encapsulated APOB siRNA at a 6:1 L:D ratio were prepared with the following cationic lipids: (1) DLinDMA; (2) C2-DPanDMA; (3) DPan-C2K-DMA; (4) DPan-C3K-DMA; and (5) DPan-C1K6-DMA.
as §2, with “3” for “2”
For dose response studies, SNALP formulations were administered by IV injection at 0.01 mg/kg, 0.033 mg/kg, or 0.1 mg/kg into female Balb/c mice (n=3 per group). Liver ApoB mRNA levels were evaluated at 48 hours after SNALP administration by a branched DNA assay (QuantiGene assay) to assess ApoB mRNA relative to the housekeeping gene GAPDH.

[2] = Characterization of SNALP formulations (size, polydispersity, encapsulation); assay type: physicochemical; details: Table 5; for Initial Encaps. (%): 7:54 SNALP (PEG750-C-DMA 6.76 | cationic 54.06 | Chol 32.43 | DPPC 6.75 mol %) with PLK-1 siRNA; for Finished Product Encaps. (%) / Finished Product Poly / Finished Product Z-Avg (nm): 7:54 SNALP with PLK-1 siRNA
Procedure: In the context of nucleic acids, full encapsulation may be determined by performing a membrane-impermeable fluorescent dye exclusion assay, which uses a dye that has enhanced fluorescence when associated with nucleic acid. Specific dyes such as OliGreen® and RiboGreen® (Invitrogen Corp.; Carlsbad, Calif.) are available for the quantitative determination of plasmid DNA, single-stranded deoxyribonucleotides, and/or single- or double-stranded ribonucleotides. Encapsulation is determined by adding the dye to a liposomal formulation, measuring the resulting fluorescence, and comparing it to the fluorescence observed upon addition of a small amount of nonionic detergent. Detergent-mediated disruption of the liposomal bilayer releases the encapsulated nucleic acid, allowing it to interact with the membrane-impermeable dye. Nucleic acid encapsulation may be calculated as E=(Io−I)Io, where I and Io refer to the fluorescence intensities before and after the addition of detergent (see, Wheeler et al., Gene Ther., 6:271-281 (1999)). […]
as §1

pKa [1] | Initial Encaps. (%) [2] [%] | Finished Product Encaps. (%) [2] [%] | Finished Product Poly [2] | Finished Product Z-Avg (nm) [2] [nm] | Compound | tumor PLK-1 mRNA silencing activity (tumor PLK-1 mRNA) | ApoB silencing activity (liver ApoB mRNA) (liver ApoB mRNA; Example 16, FIG. 8, ApoB/GAPDH QG assay) | ApoB silencing activity (liver ApoB mRNA) (liver ApoB mRNA; Example 16 second study, FIG. 9, 0.1 mg/kg)
~6.1 | 86 | 100 | 0.06 | 81 | CC(C)CCCC(C)CCCC(C)CCCC(C)CCOCC(CCN(C)C)OCCC(C)CCCC(C)CCCC(C)CCCC(C)C (centres unmarked) [Compound C2-DPanDMA, 1,2-Diphytanyloxy-(N,N-dimethyl)-butyl-4-amine] | no difference in silencing activity | more potent compared to DLinDMA and substantially more potent compared to DPanDMA | more potent compared to DLinDMA; also recorded: greatest activity of all the phytanyl-containing cationic lipids tested
5.5 | 75 | 100 | 0.08 | 76 | CC(C)CCCC(C)CCCC(C)CCCC(C)CCOCC(CN(C)C)OCCC(C)CCCC(C)CCCC(C)CCCC(C)C (centres unmarked) [DPanDMA, 1,2-Diphytanyloxy-3-(N,N-dimethyl)-propylamine] | no difference in silencing activity |  | 
